Data on nine compounds can be found in patent publication US9738642B2, “Triazolopyridine ether derivatives and their use in neurological and pyschiatric disorders” (BRISTOL-MYERS SQUIBB COMPANY, priority 2013, dated 2017).

Where a name gives a salt, the structure may show the parent alone.

For one test, the target named is T1, human mGluR2 (Homo sapiens, UniProt Q14416).
T1 construct: expressed in transfected cells; host or cells: HEK293 clonal line
T1 sequence (Q14416 19-872): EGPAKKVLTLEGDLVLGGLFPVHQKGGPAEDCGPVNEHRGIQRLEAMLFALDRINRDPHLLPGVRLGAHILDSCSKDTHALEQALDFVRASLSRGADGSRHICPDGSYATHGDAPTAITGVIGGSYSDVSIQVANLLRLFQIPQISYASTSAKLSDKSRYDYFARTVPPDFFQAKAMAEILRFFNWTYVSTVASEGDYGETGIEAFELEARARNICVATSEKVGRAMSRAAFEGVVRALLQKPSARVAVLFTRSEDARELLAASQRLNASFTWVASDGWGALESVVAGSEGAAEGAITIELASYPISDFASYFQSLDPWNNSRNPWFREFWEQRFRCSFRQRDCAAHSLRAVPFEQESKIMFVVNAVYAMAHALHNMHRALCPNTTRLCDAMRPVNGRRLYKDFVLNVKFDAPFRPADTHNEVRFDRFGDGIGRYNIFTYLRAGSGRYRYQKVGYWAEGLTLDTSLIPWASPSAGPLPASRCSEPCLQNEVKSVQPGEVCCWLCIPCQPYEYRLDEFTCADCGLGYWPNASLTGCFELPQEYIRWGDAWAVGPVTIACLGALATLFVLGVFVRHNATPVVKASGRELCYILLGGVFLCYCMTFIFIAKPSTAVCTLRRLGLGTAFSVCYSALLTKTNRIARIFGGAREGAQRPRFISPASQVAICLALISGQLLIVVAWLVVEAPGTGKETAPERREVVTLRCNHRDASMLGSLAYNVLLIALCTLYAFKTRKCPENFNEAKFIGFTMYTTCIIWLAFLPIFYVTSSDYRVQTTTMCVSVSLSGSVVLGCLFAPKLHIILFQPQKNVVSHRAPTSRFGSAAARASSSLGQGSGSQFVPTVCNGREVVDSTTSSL
Kind of test: mGluR2 cAMP assay. Format: cell-based. The conditions noted are these: EC50 (nM), activity in mGluR2 cAMP assay, clonally expressed human mGluR2 in HEK293; 1 μM forskolin, 1 μM LY-341495, 30 min; CISBIO cAMP kit. (In general: Cyclic AMP is a second messenger, typically raised through Gs and lowered through Gi signalling.)
The compound `Fc1ccc([C@H]2C[C@H](Oc3ccn4c(CC5CC5)nnc4c3C(F)(F)F)C2)cc1` [Example 96, 3-(Cyclopropylmethyl)-7-((1r,3r)-3-(4-fluorophenyl)cyclobutoxy)-8-(trifluoromethyl)-[1,2,4]triazolo[4,3-a]pyridine] returned a concentration giving a half-maximal response (EC50) of 0.4 nM.

The same test, now with this note: clonally expressed human mGluR2 in HEK293; 1 μM forskolin, 1 μM LY-341495, 30 min; CISBIO cAMP kit; read-out: EC50 (nM), activity in mGluR2 cAMP assay.
Turning to `FC(F)(F)c1c(OCC(F)(F)c2ccccc2)ccn2c(CC3CC3)nnc12` [Example 83, 3-(Cyclopropylmethyl)-7-(2,2-difluoro-2-phenylethoxy)-8-(trifluoromethyl)-[1,2,4]triazolo[4,3-a]pyridine], the EC50 turned out to be 6.1 nM.

As for `COC1(c2ccc(F)cc2)CCC(Oc2ccn3c([C@H]4C[C@@H]4F)nnc3c2C(F)(F)F)CC1` (stereo partly drawn) [Example 90, 3-((1R,2S)-2-Fluorocyclopropyl)-7-((1s,4s)-4-(4-fluorophenyl)-4-methoxycyclohexyloxy)-8-(trifluoromethyl)-[1,2,4]triazolo[4,3-a]pyridine], the concentration for a half-maximal effect (EC50) worked out at 19 nM.

For the compound `COC1(c2ccc(F)cc2)CCC(Oc2ccn3c([C@@H]4C[C@H]4F)nnc3c2C(F)(F)F)CC1` (stereo partly drawn) [Example 91, 3-((1S,2R)-2-Fluorocyclopropyl)-7-((1s,4s)-4-(4-fluorophenyl)-4-methoxycyclohexyloxy)-8-(trifluoromethyl)-[1,2,4]triazolo[4,3-a]pyridine], the EC50 came to 83 nM.

With `CO[C@]1(c2ccc(F)cc2)CC[C@H](Oc2ccn3c(C4CC4)nnc3c2C(F)(F)F)CC1` [Example 92, 3-Cyclopropyl-7-((1s,4s)-4-(4-fluorophenyl)-4-methoxycyclohexyloxy)-8-(trifluoromethyl)-[1,2,4]triazolo[4,3-a]pyridine], the EC50 came to 35 nM.

Regarding `CO[C@]1(c2ccc(F)cc2)CC[C@H](Oc2ccn3c(C4CC(F)(F)C4)nnc3c2C(F)(F)F)CC1` [Example 93, 3-(3,3-Difluorocyclobutyl)-7-((1s,4s)-4-(4-fluorophenyl)-4-methoxycyclohexyloxy)-8-(trifluoromethyl)-[1,2,4]triazolo[4,3-a]pyridine], the EC50 came out at 20 nM.

Regarding `O[C@]1(c2ccc(F)cc2)CC[C@H](Oc2ccn3c(CC4CC4)nnc3c2C(F)(F)F)CC1` [Example 95, (1s,4s)-4-(3-(Cyclopropylmethyl)-8-(trifluoromethyl)-[1,2,4]triazolo[4,3-a]pyridin-7-yloxy)-1-(4-fluorophenyl)cyclohexanol, TFA salt], the 50% effective concentration (EC50) came to 1 nM.

Turning to `CO[C@]1(c2ccc(F)cc2)CC[C@H](Oc2ccn3c(CC(F)(F)F)nnc3c2C(F)(F)F)CC1` [Example 97, 7-((1s,4s)-4-(4-Fluorophenyl)-4-methoxycyclohexyloxy)-3-(2,2,2-trifluoroethyl)-8-(trifluoromethyl)-[1,2,4]triazolo[4,3-a]pyridine], the EC50 was determined as 1 nM.

Turning to `[2H]C([2H])([2H])O[C@]1(c2ccc(F)cc2)CC[C@H](Oc2ccn3c(CC4CC4)nnc3c2C(F)(F)F)CC1` [Example 99, 3-(Cyclopropylmethyl)-7-((1s,4s)-4-(4-fluorophenyl)-4-(methoxy-d3)cyclohexyloxy)-8-(trifluoromethyl)-[1,2,4]triazolo[4,3-a]pyridine], the EC50 was 0.5 nM.

The term EC50 denotes the concentration at which the effect is half-maximal.
